{"source": "paper PMC6120190", "about": "“Identification of two distinct peptide-binding pockets in the SH3 domain of human mixed-lineage kinase 3” (The Journal of Biological Chemistry, 2018)", "molecules": {"B1": {"name": "biotinylated NS5A peptide ([…]-GGG-K-biotin) (peptide)", "peptide": "KKAPTPPPRRRRGGGK(Biotin)", "notes": "also called immobilized NS5A; source: synthetic peptide"}, "B2": {"name": "MLK3 SH3(41–105)-MIP(1–13) fusion protein (other, human)", "chain": "YANPVWTALFDYEPSGQDELALRKGDRVEVLSRDAAISGDEGWWAGQVGGQVGIFPSNYVSRGGGAIRINPNGTWSRQ", "notes": "also called the WT construct"}, "B3": {"name": "unlabeled MIP (synthetic) (peptide)", "peptide": "AIRINPNGTWSRQAETVES", "notes": "also called MIP(1–19); soluble MIP peptide; source: synthetic peptide"}}, "key": {"[1]": {"tested_on": "GST-MLK1 SH3", "assay": "specificity ELISA, MLK1", "assay_type": "binding, human", "conditions": "biotinylated peptide ≈2 μM on NeutrAvidin; GST-SH3 0.15 μM, 1–1.5 h; anti-GST-HRP; triplicate (Fig. 8)", "protocol": "(§1) Figure 8. Binding of MIP and NS5A peptides to SH3 domain of other members of MLK subfamily (MLK1–4). To determine whether MIP and NS5A can interact with SH3 domains of MLK1–4 proteins, the purified GST-MLK1–4 SH3 domains were incubated with biotinylated peptides, NS5A peptide ([…]-GGG-K-biotin), MIP ([…]-K-biotin), and MIP-R12A ([…]-K-biotin), immobilized on a NeutrAvidin-coated 96-well ELISA plate. Binding of SH3 domain was detected with anti-GST antibody conjugated to HRP. […] See also Fig. S6.\n(§2) Two plasmids, gifts from Dr. Gerardo Morfini, University of Illinois at Chicago, encoding a GST protein fused to either the WT or mutant Y52A of the SH3 domain of MLK3 (UniProt entry Q16584; aa 43–104), respectively, between BamHI and EcoRI sites, were transformed into the Escherichia coli strain Rosetta(DE3)pLysS. DNA fragments encoding the SH3 domain of MLK1 (UniProt entry P80192; aa 52–116), MLK2 (UniProt entry Q02779; aa 16–81), and MLK4 (UniProt entry Q5TCX8; aa 38–102) were commercially prepared as gBlocks® Gene Fragments (Integrated DNA Technologies, Inc.). All coding regions were codon-optimized for E. coli expression. DNA fragments were cleaved with BamHI-HF® and EcoRI-HF® (New England Biolabs) and subsequently ligated into pGex-2T vector. […]"}, "[2]": {"tested_on": "GST-MLK2 SH3", "assay": "specificity ELISA, MLK2", "assay_type": "binding, human", "conditions": "biotinylated peptide ≈2 μM on NeutrAvidin; GST-SH3 0.15 μM, 1–1.5 h; anti-GST-HRP; triplicate (Fig. 8)", "protocol": "as §1, §2"}, "[3]": {"tested_on": "GST-MLK3 SH3", "assay": "specificity ELISA, MLK3", "assay_type": "binding, human", "conditions": "biotinylated peptide ≈2 μM on NeutrAvidin; GST-SH3 0.15 μM, 1–1.5 h; anti-GST-HRP; triplicate (Fig. 8)", "protocol": "as §1, §2"}, "[4]": {"tested_on": "GST-MLK4 SH3", "assay": "specificity ELISA, MLK4", "assay_type": "binding, human", "conditions": "biotinylated peptide ≈2 μM on NeutrAvidin; GST-SH3 0.15 μM, 1–1.5 h; anti-GST-HRP; triplicate (Fig. 8)", "protocol": "as §1, §2"}, "[5]": {"tested_on": "MLK3 SH3 domain Y52A", "assay": "binding to Y52A mutant of MLK3 SH3", "parameters": "species or system human", "conditions": "data not shown", "text": "Two plasmids, gifts from Dr. Gerardo Morfini, University of Illinois at Chicago, encoding a GST protein fused to either the WT or mutant Y52A of the SH3 domain of MLK3 (UniProt entry Q16584; aa 43–104), respectively, between BamHI and EcoRI sites, were transformed into the Escherichia coli strain Rosetta(DE3)pLysS. DNA fragments encoding the SH3 domain of MLK1 (UniProt entry P80192; aa 52–116), MLK2 (UniProt entry Q02779; aa 16–81), and MLK4 (UniProt entry Q5TCX8; aa 38–102) were commercially prepared as gBlocks® Gene Fragments (Integrated DNA Technologies, Inc.). All coding regions were codon-optimized for E. coli expression. DNA fragments were cleaved with BamHI-HF® and EcoRI-HF® (New England Biolabs) and subsequently ligated into pGex-2T vector. The resulting DNA constructs, pGex-MLK1 SH3, pGex-MLK2 SH3, and pGex-MLK4 SH3 (verified by sequencing) were transformed into E. coli strain BL21(DE3)."}, "[6]": {"tested_on": "GST tag", "assay": "binding of MIP to GST tag", "conditions": "ELISA", "protocol": "After three washes with PBS containing 0.1% Tween 20 (PBST), retention of the SH3 domain fusion protein in wells was detected with an anti-GST antibody conjugated to horseradish peroxidase (HRP) (GE Healthcare; 45 min; 1:5000 in PBST). Following three washes with PBST, the chromogenic substrate solution 2,2-azinobis(3-ethylbenzthiazoline-6-sulfonic acid) (ABTS; Pierce); 10 ml of 50 mM sodium citrate, pH 4.0; and 100 μl of 3% H2O2 were added to the plate (100 μl/well). The absorbance was measured at 405 nm with a POLARstar OPTIMA microtiter plate reader (BMG Labtech)."}, "[7]": {"tested_on": "SH3 domain of MLK3", "conditions": "cited from earlier work", "text": "Mixed-lineage protein kinase 3 (MLK3) is widely expressed in a variety of normal and cancerous tissues, such as brain, lung, liver, heart, breast, kidney, pancreas, and skeletal muscle ([34][–][36]). MLK3, also known as MAP3K11, is a serine/threonine protein kinase involved in regulating the JNK, p38, and ERK pathways ([37][–][42]). It is composed of several modules: an SH3 domain, a kinase domain, tandem leucine zippers, a Cdc42/Rac interactive binding (CRIB) motif, several linker regions, and a proline-rich C-terminal tail ([39], [43]). According to the BioGRID interaction database ([44]), M ..."}, "[8]": {"tested_on": "GST-MLK3 SH3", "assay": "phage ELISA of phage-displayed MIP and variants on GST-MLK3 SH3", "assay_type": "binding, human", "conditions": "original clone/MIP, anti-M13 mAb-HRP detection, experiments in duplicate, averaged", "protocol": "(§3) Figure 1. […] The presence of virions in the supernatant was determined by coating the wells of the microtiter plate with an anti-M13 mAb (anti-M13 Ab). Virions, which were retained in the microtiter plate wells, were detected with anti-M13 mAb conjugated to HRP. […] See also Fig. S1.\nFigure 2. […] The MIP sequence, NH2-[…]-COOH, was fused to the N terminus of the pIII capsid protein of bacteriophage M13 ([51]) to facilitate type 3 pentavalent display. Systematic alanine replacements in the peptide were generated by Kunkel mutagenesis ([11]); Ala-1 and Ala-14 were replaced with Val. […] The signal for binding of MIP (WT) to GST-MLK3 SH3 is set as 100%, and other values are normalized to it. […] See also Fig. S2.\nScreens for peptide ligands were performed following a protocol published previously ([11]). […] After three rounds of affinity selection, individual phage clones were isolated, and their binding was evaluated via phage ELISA ([11]). […]\nAll constructs were generated via Kunkel mutagenesis ([11], [57], [58]) and facilitated type 3 (pentavalent) display. […] All constructs were verified by DNA sequencing, and phage clones were evaluated for their binding to the target (GST-MLK3 SH3) via phage ELISA ([11]). […]"}, "[9]": {"tested_on": "GST fusion partner", "assay": "phage ELISA of phage-displayed MIP on GST fusion partner", "assay_type": "binding", "conditions": "duplicate (Fig. 1)", "protocol": "as §3\nScreens for peptide ligands were performed following a protocol published previously ([11]). The purified target protein, GST-MLK3 SH3-WT, was prebound to GSH magnetic beads (Pierce, catalogue number 88821), and nonspecific binding sites were blocked with phosphate-buffered saline (PBS; 137 mM NaCl, 3 mM KCl, 8 mM Na2HPO4, 1.5 mM KH2PO4) containing 3% (w/v) bovine serum albumin (BSA). […] After three rounds of affinity selection, individual phage clones were isolated, and their binding was evaluated via phage ELISA ([11]). Positive clones were then sequenced."}, "[10]": {"molecular_target": "T1, GST-MLK3 SH3(43–104) (human, UniProt Q16584 43-104)", "T1 construct": "also called GST-MLK3 SH3-WT; SH3 WT", "T1 sequence (looked up)": "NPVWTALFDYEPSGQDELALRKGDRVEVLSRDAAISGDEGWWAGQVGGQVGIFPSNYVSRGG", "assay": "ELISA", "conditions": "both partners purified"}, "[11]": {"molecular_target": "T2, GST-MLK1 SH3 (UniProt P80192 52-116)", "T2 construct": "also called SH3 domain of MLK1", "T2 sequence (looked up)": "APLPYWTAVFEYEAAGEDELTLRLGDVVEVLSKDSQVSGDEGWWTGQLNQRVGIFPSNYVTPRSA", "assay": "ELISA", "conditions": "both partners purified"}, "[12]": {"molecular_target": "T3, GST-MLK2 SH3 (UniProt Q02779 16-81)", "T3 construct": "also called SH3 domain of MLK2", "T3 sequence (looked up)": "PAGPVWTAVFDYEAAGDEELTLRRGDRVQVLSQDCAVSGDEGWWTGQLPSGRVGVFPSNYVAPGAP", "assay": "ELISA", "conditions": "both partners purified"}, "[13]": {"molecular_target": "T4, GST-MLK4 SH3 (UniProt Q5TCX8 38-102)", "T4 construct": "also called SH3 domain of MLK4", "T4 sequence (looked up)": "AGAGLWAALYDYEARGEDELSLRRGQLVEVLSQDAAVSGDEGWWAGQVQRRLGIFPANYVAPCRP", "assay": "ELISA", "conditions": "both partners purified"}, "[14]": {"molecular_target": "the molecule itself", "assay": "SEC"}, "[15]": {"molecular_target": "T1, GST-MLK3 SH3(43–104)", "assay": "ELISA; competition ELISA: GST-MLK3 SH3 (5 μg/ml) preincubated 1–1.5 h with ≈0.01–100 μM unlabeled competitor peptide, then 45 min on biotinylated MIP (≈2 μM) captured via NeutrAvidin; anti-GST-HRP detection; GST tag tested as a control", "conditions": "both partners purified"}}, "note": "No end group written: not given here. *: point of attachment. Biotin = O=C1N[C@H]2[C@H](CS[C@H]2CCCCC(=O)*)N1", "data": [{"molecule": "CC[C@H](C)[C@H](NC(=O)[C@H](C)N)C(=O)N[C@@H](CCCNC(=N)N)C(=O)N[C@H](C(=O)N[C@@H](CC(N)=O)C(=O)N1CCC[C@H]1C(=O)N[C@@H](CC(N)=O)C(=O)NCC(=O)N[C@H](C(=O)N[C@@H](Cc1c[nH]c2ccccc12)C(=O)N[C@@H](CO)C(=O)N[C@@H](CCCNC(=N)N)C(=O)N[C@@H](CCC(N)=O)C(=O)N[C@@H](C)C(=O)N[C@@H](CCC(=O)O)C(=O)N[C@H](C(=O)N[C@H](C(=O)N[C@@H](CCC(=O)O)C(=O)N[C@@H](CO)C(=O)O)C(C)C)[C@@H](C)O)[C@@H](C)O)[C@@H](C)CC", "note": "[MIP]", "values": [{"measurement": "binding to MLK1 SH3", "setting": "[1]", "value": "bound"}, {"measurement": "binding to MLK2 SH3", "setting": "[2]", "value": "did not bind"}, {"measurement": "binding to MLK3 SH3", "setting": "[3]", "value": "bound"}, {"measurement": "binding to MLK4 SH3", "setting": "[4]", "value": "bound"}, {"measurement": "effect of SH3 mutation Y52A on peptide binding", "setting": "[5]", "value": "disrupts binding"}, {"measurement": "interaction with GST tag", "setting": "[6]", "value": "no interactions"}]}, {"molecule": "HCV NS5A: hepatitis C virus nonstructural 5A protein", "values": [{"measurement": "interaction with SH3 domain of MLK3", "setting": "[7]", "value": "interact with the SH3 domain of MLK3 via a PXXPXR motif"}]}, {"molecule": "NH2-AIRINPNGTWSRQAETVES-COOH [phage-displayed MIP, MIP fused to the N terminus of the pIII capsid protein of bacteriophage M13]", "values": [{"measurement": "binding to GST-MLK3 SH3 in phage ELISA", "setting": "[8]", "value": "bind to the WT form of the MLK3 SH3 domain"}, {"measurement": "binding to GST fusion partner in phage ELISA", "setting": "[9]", "value": "not the GST fusion partner"}]}, {"molecule": "B1", "values": [{"measurement": "binding result", "setting": "[10]", "value": "binds"}, {"measurement": "binding result", "setting": "[11]", "value": "binds"}, {"measurement": "binding result", "setting": "[12]", "value": "binds"}, {"measurement": "binding result", "setting": "[13]", "value": "binds"}]}, {"molecule": "B2", "values": [{"measurement": "binding result", "setting": "[14]", "value": "binds"}]}, {"molecule": "B3", "values": [{"measurement": "IC50", "setting": "[10]", "value": "6.6 ± 1.6", "unit": "µM"}, {"measurement": "IC50", "setting": "[15]", "value": "15.8 ± 0.4", "unit": "µM"}]}]}
